| melting point [°C] | Structure (SMILES) |
| --- | --- |
| 241.6 to 242.3 | O=C(NNS(=O)(=O)c1cc(Cl)cc(Cl)c1)c1ccc2ncccc2c1 (hydrate or solvate) [Example 138, 6-Quinolinecarboxylic acid, 2-[(3,5-dichlorophenyl)sulfonyl]hydrazide] |
| 241.3 to 241.9 | O=C(NNS(=O)(=O)c1cc(Cl)cc(Cl)c1)c1cnc2ccccc2c1 (hydrate or solvate) [Example 139, 3-Quinolinecarboxylic acid, 2-[(3,5-dichlorophenyl)sulfonyl]hydrazide] |
| 198 to 200 | O=C(NNS(=O)(=O)c1ccccc1)c1nccc2ccccc12 (hydrate or solvate) [Example 152, Isoquinoline-1-carboxylic acid 2-(phenylsulfonyl)hydrazide] |
| 209 to 211 | O=C(NNS(=O)(=O)c1ccccc1)c1ccc2[nH]ccc2c1 (hydrate or solvate) [Example 153, 1H-Indole-5-carboxylic acid 2-(phenylsulfonyl)hydrazide] |
| 249 to 250 | O=C(NNS(=O)(=O)c1ccccc1)c1cnc2ccccc2c1 (hydrate or solvate) [Example 154, Quinoline-3-carboxylic acid 2-(phenylsulfonyl)hydrazide] |
| 223 to 224 | CCOc1cccc2cc(C(=O)NNS(=O)(=O)c3ccccc3)oc12 [Example 147, 7-Ethoxy-2-benzofurancarboxylic acid 2-(phenylsulfonyl)-hydrazide] |
| 223 to 224 | O=C(NNS(=O)(=O)c1ccccc1)c1cc2cccc(Cl)c2o1 [Example 148, 7-Chloro-benzofuran-2-carboxylic acid 2-(phenylsulfonyl)hydrazide] |
| 240.2 to 241.1 | Nc1ccc2[nH]c(C(=O)NNS(=O)(=O)c3ccccc3)cc2c1 [Example 150, 2-Indolecarboxylic acid, 5-amino-2-phenylsulfonyl hydrazide] |
| 239.3 to 239.9 | O=C(NNS(=O)(=O)c1ccc([N+](=O)[O-])cc1)c1ccc2oc3ccccc3c2c1 [Example 159, 2-Dibenzofurancarboxylic acid, 2-(4-nitrophenyl)sulfonyl hydrazide] |
| 213 to 214 | COc1ccc(S(=O)(=O)Nc2ccc3oc(C(=O)NNS(=O)(=O)c4ccccc4)cc3c2)cc1 [Example 160, 2-Benzofurancarboxylic acid, 5-(4-methoxyphenylsulfonylamino)-, 2-(phenylsulfonyl)hydrazide] |
| 181 to 183 | Cc1ccc(S(=O)(=O)Nc2ccc3oc(C(=O)NNS(=O)(=O)c4ccccc4)cc3c2)cc1 [Example 161, 2-Benzofurancarboxylic acid, 5-(4-methylphenylsulfonylamino)-, 2-(phenylsulfonyl)hydrazide] |
| 223.4 to 224.1 | O=C(NNS(=O)(=O)c1ccccc1[N+](=O)[O-])c1ccc2oc3ccccc3c2c1 [Example 162, 2-Dibenzofurancarboxylic acid, 2-[(2-nitrophenyl)sulfonyl]hydrazide] |
| 169 to 169.8 | CCCCCc1ccc(S(=O)(=O)Nc2ccc3oc(C(=O)NNS(=O)(=O)c4ccccc4)cc3c2)cc1 [Example 163, 2-Benzofurancarboxylic acid, 5-(4-pentylphenylsulfonylamino)-, 2-(phenylsulfonyl)hydrazide] |
| 94.7 to 95.5 | CC(C)Nc1ccc2oc(C(=O)NNS(=O)(=O)c3ccccc3)cc2c1 [Example 164, 2-Benzofurancarboxylic acid, 5-(N-isopropylamino)-, 2-(phenylsulfonyl)hydrazide] |
| 160.4 to 161.1 | CCCc1ccc(S(=O)(=O)Nc2ccc3oc(C(=O)NNS(=O)(=O)c4ccccc4)cc3c2)cc1 [Example 165, 2-Benzofurancarboxylic acid, 5-(4-propyllphenylsulfonylamino)-, 2-(phenylsulfonyl)hydrazide] |
| 217.9 to 218.4 | Nc1ccccc1S(=O)(=O)NNC(=O)c1ccc2oc3ccccc3c2c1 [Example 166, 2-Dibenzofurancarboxylic acid, 2-[(2-aminophenyl)sulfonyl]hydrazide] |

Continued, molecule first:

| Structure (SMILES) | melting point [°C] |
| --- | --- |
| COc1c(C(=O)NNS(=O)(=O)c2ccccc2)oc2cc3ccccc3cc12 (hydrate or solvate) [Example 68, Naptho[2,3-b]furan-2-carboxylic acid, 3-methoxy-, 2-(phenylsulfonyl)hydrazide] | 205.7 to 207.1 |
| O=C(NNS(=O)(=O)c1ccccc1Br)c1cc2cc(Cl)cc(Cl)c2o1 (hydrate or solvate) [Example 73, 2-Benzofurancarboxylic acid, 5,7-dichloro 2-[(2-bromophenyl)sulfonyl]-hydrazide] | 196.2 to 196.6 |
| Cc1ccc2oc(C(=O)NNS(=O)(=O)c3ccccc3)cc2c1 (hydrate or solvate) [Example 77, Benzofurancarboxylic acid, 5-methyl-, 2-(phenylsulfonyl)hydrazide] | 183.3 to 183.6 |
| COc1c(C(=O)NNS(=O)(=O)c2ccccc2)oc2ccc(Cl)cc12 (hydrate or solvate) [Example 78, 2-Benzofurancarboxylic acid, 5-chloro-3-methoxy, 2-(phenylsulfonyl)hydrazide] | 242.2 to 244.2 |
| Cc1ccc2oc(C(=O)NNS(=O)(=O)c3ccccc3C(F)(F)F)cc2c1 (hydrate or solvate) [Example 79, 2-Benzofurancarboxylic acid, 5-methyl-, 2-[[2-(trifluoromethyl)phenyl]sulfonyl]-hydrazide] | 194 to 195.4 |
| Cc1cccc(S(=O)(=O)NNC(=O)c2cc3cc(C)ccc3o2)c1 (hydrate or solvate) [Example 80, 2-Benzofurancarboxylic acid, 5-methyl-, 2-([3-methylphenyl)sulfonyl]hydrazide] | 184.1 to 186 |
| Cc1ccc2oc(C(=O)NNS(=O)(=O)c3ccccc3C)cc2c1 (hydrate or solvate) [Example 81, 2-Benzofurancarboxylic acid, 5-methyl-, 2-[2-(methylphenyl)sulfonyl]hydrazide] | 174.5 to 174.7 |
| Cc1ccc2oc(C(=O)NNS(=O)(=O)c3cccc(Cl)c3C)cc2c1 (hydrate or solvate) [Example 82, 2-Benzofurancarboxylic acid, 5-methyl-, 2-[(3-chloro-2-methylphenyl)sulfonyl]-hydrazide] | 182.4 to 184 |
| Cc1ccc2oc(C(=O)NNS(=O)(=O)c3cccc(Br)c3)cc2c1 (hydrate or solvate) [Example 83, 2-Benzofurancarboxylic acid, 5-methyl-, 2-[3-(bromophenyl)sulfonyl]hydrazide] | 207.2 to 209.9 |
| Cc1ccc2oc(C(=O)NNS(=O)(=O)c3cccc(Cl)c3)cc2c1 (hydrate or solvate) [Example 84, 2-Benzofurancarboxylic acid, 5-methyl-, 2-[(3-chlorophenyl)sulfonyl]hydrazide] | 186.1 to 186.3 |
| Cc1ccc2oc(C(=O)NNS(=O)(=O)c3ccccc3OC(F)(F)F)cc2c1 (hydrate or solvate) [Example 85, 2-Benzofurancarboxylic acid, 5-methyl-, 2-[[2-(trifluoromethoxy)phenyl]-sulfonyl]hydrazide] | 226.7 to 227 |
| Cc1cccc2cc(C(=O)NNS(=O)(=O)c3ccccc3)oc12 (hydrate or solvate) [Example 86, 2-Benzofurancarboxylic acid, 7-methyl-, 2-(phenylsulfonyl)hydrazide] | 217.5 to 218 |
| Cc1cccc2oc(C(=O)NNS(=O)(=O)c3ccccc3)cc12 (hydrate or solvate) [Example 87, 2-Benzofurancarboxylic acid, 4-methyl-, 2-(phenylsulfonyl)hydrazide] | 217 to 218 |
| Cc1c(C(=O)NNS(=O)(=O)c2ccccc2)oc2ccccc12 (hydrate or solvate) [Example 88, 2-Benzofurancarboxylic acid, 3-methyl-, 2-(phenylsulfonyl)hydrazide] | 221.6 to 222.2 |
| Cc1ccc2oc(C(=O)NNS(=O)(=O)c3ccccc3)c(C)c2c1 (hydrate or solvate) [Example 89, 2-Benzofurancarboxylic acid, 3,5-dimethyl-, 2-(phenylsulfonyl)hydrazide] | 225.9 to 227.1 |
| Cc1c(C(=O)NNS(=O)(=O)c2ccccc2)oc2ccc(Cl)cc12 (hydrate or solvate) [Example 90, 2-Benzofurancarboxylic acid, 5-chloro-3-methyl, 2-(phenylsulfonyl)hydrazide] | 246.8 to 247.8 |
| Nc1ccc2oc(C(=O)NNS(=O)(=O)c3ccccc3)cc2c1 (hydrate or solvate) [Example 91, 2-Benzofurancarboxylic acid, 5-amino-, 2-(phenylsulfonyl)hydrazide] | 206.9 to 207.7 |
| Cc1cccc(S(=O)(=O)NNC(=O)c2ccc3ncccc3c2)c1 (hydrate or solvate) [Example 128, 6-Quinolinecarboxylic acid, 2-[(3-methylphenyl)sulfonyl]hydrazide] | 234 to 234.6 |
| Cc1cccc(S(=O)(=O)NNC(=O)c2cnc3ccccc3c2)c1 (hydrate or solvate) [Example 129, 3-Quinolinecarboxylic acid, 2-[(3-methylphenyl)sulfonyl]hydrazide] | 238.6 to 239.4 |
| O=C(NNS(=O)(=O)c1cccc(Cl)c1)c1ccc2ncccc2c1 (hydrate or solvate) [Example 130, 6-Quinolinecarboxylic acid, 2-[(3-chlorophenyl)sulfonyl]hydrazide] | 238.4 to 239.1 |
| O=C(NNS(=O)(=O)c1cccc(Cl)c1)c1cnc2ccccc2c1 (hydrate or solvate) [Example 131, 3-Quinolinecarboxylic acid, 2-[(3-chlorophenyl)sulfonyl]hydrazide] | 249.5 to 250.4 |
| O=C(NNS(=O)(=O)c1cccc(F)c1)c1ccc2ncccc2c1 (hydrate or solvate) [Example 132, 6-Quinolinecarboxylic acid, 2-[(3-fluorophenyl)sulfonyl]hydrazide] | 250.6 to 251.3 |
| O=C(NNS(=O)(=O)c1cccc(F)c1)c1cnc2ccccc2c1 (hydrate or solvate) [Example 133, 3-Quinolinecarboxylic acid, 2-[(3-fluorophenyl)sulfonyl]hydrazide] | 247.8 to 248.4 |

Source: US20050004167A1, “Branched chain amino acid-dependent aminotransferase inhibitors and their use in the treatment of neurodegenerative diseases” (WARNER-LAMBERT COMPANY LLC, priority 2001, published 2005)
